Data on three compounds can be found in ChEMBL document CHEMBL1131716, “Heterocycle-peptide hybrid compounds. Aminotriazole-containing agonists of the thrombin receptor (PAR-1)” (Bioorg Med Chem Lett, 1999).

A word on the pIC50: it is −log10 of the IC50, conventionally taken in molar units. Lower therefore signals a high IC50.

The species named for one test is Homo sapiens. Description: Antagonist activity by using human gel-filtered platelet aggregation. In kind it is functional.
Test [1] addresses T1, Proteinase-activated receptor 1 (Homo sapiens, UniProt P25116).
T1 sequence (P25116 whole entry): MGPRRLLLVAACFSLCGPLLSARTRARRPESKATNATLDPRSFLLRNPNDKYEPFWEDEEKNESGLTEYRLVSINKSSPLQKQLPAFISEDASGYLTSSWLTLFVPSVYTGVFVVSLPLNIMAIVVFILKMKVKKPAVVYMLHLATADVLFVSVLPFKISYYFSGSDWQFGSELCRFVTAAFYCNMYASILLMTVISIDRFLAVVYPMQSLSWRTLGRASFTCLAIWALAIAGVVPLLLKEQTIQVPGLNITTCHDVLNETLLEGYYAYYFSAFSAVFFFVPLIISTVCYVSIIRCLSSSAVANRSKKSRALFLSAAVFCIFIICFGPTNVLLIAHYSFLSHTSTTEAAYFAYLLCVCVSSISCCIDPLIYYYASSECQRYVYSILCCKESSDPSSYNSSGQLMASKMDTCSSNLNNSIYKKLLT
As to the kind of experiment: Inhibition of [3H]S-(p-F-Phe)-Har-L-Har-KY-NH2 binding to Thrombin receptor 1 (PAR-1) on membranes from CHRF cells. The test is classed as cell membranes.

In test [2] the target is T1, Proteinase-activated receptor 1. As to the kind of experiment: Inhibition of [3H]S-(p-F-Phe)-Har-L-Har-KY-NH2 binding to thrombin receptor (PAR-1) on membranes from CHRF cells. In kind it is cell membranes.

pIC50: −log10 of the molar value.

Turning to `N=C(N)NCCC[C@H](NC(=O)[C@H](CC1CCCCC1)NC(=O)c1n[nH]c(NC(=O)/C=C/c2ccccc2Cl)n1)C(=O)N[C@@H](Cc1ccccc1)C(N)=O`, the negative logarithm of the IC50 (pIC50) in the test listed under Homo sapiens is 5.44; in test [1], 5.85.
Turning to `N=C(N)NCCC[C@H](NC(=O)[C@H](CC1CCCCC1)NC(=O)c1n[nH]c(NC(=O)/C=C/c2cccc3ccccc23)n1)C(=O)N[C@@H](Cc1ccccc1)C(N)=O`, the negative-log IC50 (pIC50) in the test listed under Homo sapiens is 5.27; in test [2], 4.80.
For `N=C(N)NCCC[C@H](NC(=O)[C@H](CC1CCCCC1)NC(=O)c1n[nH]c(NC(=O)/C=C/c2ccccc2)n1)C(=O)N[C@@H](Cc1ccccc1)C(N)=O`, the pIC50 in the test filed under Homo sapiens is 5.01; in test [1], 5.19.
